Patent publication US9669100B2, “Polymer support for the distribution of a naturally crystalline substance and production method” (priority 2013, dated 2017)

How the values were obtained:
[1] = Stability of the active solution (limpid, no recrystallisation); format: physicochemical; conditions: ESTASOL/ARLASOLVE DMI plus refined coconut oil; after stirring (30 min Example 1, 20 min Example 3)
Protocol: In a 1 liter beaker, the following products are successively introduce with stirring:
And then introduce by sprinkling while still stirring:
After completely dissolving, pour while still stirring:
300 g refined coconut oil.
In a 1 liter beaker, the following are successively added under stirring:
100 g refined coconut oil.
All is stirred for 20 minutes until the active solution becomes limpid.

[2] = Solubilisation of naturally crystalline substances in the solvent mixture (dibasic esters / dimethyl isosorbide); format: physicochemical; conditions: solvent mixture solvent/cosolvent

## Cn1c(=O)c2c(ncn2C)n(C)c1=O [Caffeine]
[1]
  state of the active solution after preparation: does not recrystallise

## CC1(C)[C@H](C(=O)O[C@H](C#N)c2cccc(Oc3ccccc3)c2)[C@@H]1C=C(Br)Br [Deltamethrin]
[2]; cold solution, even at low temperature
  maximum concentration possible without recrystallization in the active solution: ≤ 20 % by weight

## CNC(=O)Oc1ccccc1OC(C)C [Propoxur]
[2]
  concentration dissolved in a stable manner in the solvent mixture: 56 % by weight of solution
